Results from paper PMC9402538, “Rational design of a sensitivity-enhanced tracer for discovering efficient APC–Asef inhibitors” (Nature Communications, 2022).
“And” between values parts separate entries of the source, which are not always exact repeats. Identical values can stand only once. “Also recorded” adds a separate entry of the source. Where a SMILES comes first, the peptide text is derived from it. The star is where a group is joined. Benzoyl(4-OMe) = COc1ccc(C(=O)*)cc1

Legend:
SW480 cells = test: Transwell migration assay, SW480; assay type: cell-based
Method: Cells were serum-starved for 8 h and then digested and resuspended in serum-free medium. […] The lower chambers were filled with 600 μL of complete medium. […] After 48 h, the Transwell inserts were washed twice with 1× PBS. The cells in the upper chambers of the Transwell inserts were gently removed using cotton-tipped applicators. The cells on the lower surface of the membrane were fixed with methanol and then stained with crystal violet for 10 min. The Transwell inserts were washed with distilled water to remove the excess crystal violet and then dried. The stained cells from different areas were imaged using light microscopy and counted using ImageJ (NIH).

APC (303–739) = biological target: T1, APC (303–739) (Homo sapiens, UniProt P25054); test: FP competitive assay using tracer 7; assay type: binding
T1 sequence (P25054 303-739): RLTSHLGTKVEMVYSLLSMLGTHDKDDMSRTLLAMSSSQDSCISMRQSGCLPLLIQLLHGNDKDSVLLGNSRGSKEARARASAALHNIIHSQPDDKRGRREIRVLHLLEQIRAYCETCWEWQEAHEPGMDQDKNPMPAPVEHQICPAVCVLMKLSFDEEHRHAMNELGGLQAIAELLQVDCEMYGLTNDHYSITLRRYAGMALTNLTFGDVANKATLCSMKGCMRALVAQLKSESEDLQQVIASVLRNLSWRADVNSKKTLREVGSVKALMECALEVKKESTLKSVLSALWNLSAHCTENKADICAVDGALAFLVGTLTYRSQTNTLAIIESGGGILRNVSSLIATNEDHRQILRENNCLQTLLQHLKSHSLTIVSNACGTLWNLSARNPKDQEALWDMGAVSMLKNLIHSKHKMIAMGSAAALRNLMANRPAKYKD
Outline: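 Peptide dilutions were first incubated 1 h at room temperature with APC (303–739) in HEPES pH 7.5 buffer containing 300 mM NaCl, EDTA and DTT. Added FITC tracer 7 (400 nM stock) displaced over a further 1.5 h before polarization reading. IC50 values came from nonlinear regression fits of triplicate data.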

COc1ccc(C(=O)N[C@@H](C)C(=O)NCC(=O)N[C@@H](CCC(=O)O)C(=O)N[C@@H](CO)C(=O)N[C@@H](CC(C)C)C(=O)N[C@@H](Cc2ccc(O)cc2)C(=O)N[C@@H](CCC(=O)O)C(N)=O)cc1 [MAI-516] ({Benzoyl(4-OMe)}-AGESLYE-NH2)
Relative migration ability (single replicates) (SW480 cells; FigS10e, relative to DMSO): 1.11 and 1.06 and 0.96
Relative migration ability, mean (SW480 cells; FigS10e, relative to DMSO): 1.04
cell migration (transwell) (SW480 cells; SW480, MAI-516 50 μM, 48 h): dose not inhibit the migration; also recorded: no apparent impact
inhibition at 0.0002 µM (APC (303–739); Conc. 0.0002 μM, individual repeats, Fig3b, read-out: %inhibition): 0.5%
inhibition at 0.0005 µM (APC (303–739); Conc. 0.0005 μM, individual repeats, Fig3b, read-out: %inhibition): -0.4%
inhibition at 0.001 µM (APC (303–739); Conc. 0.001 μM, individual repeats, Fig3b, read-out: %inhibition): 0.3%
inhibition at 0.002 µM (APC (303–739); Conc. 0.002 μM, individual repeats, Fig3b, read-out: %inhibition): 0.4%
inhibition at 0.0024 µM (APC (303–739); Conc. 0.0024 μM, individual repeats, Fig3b, read-out: %inhibition): 2.8%
inhibition at 0.0039 µM (APC (303–739); Conc. 0.0039 μM, individual repeats, Fig3b, read-out: %inhibition): 3.1%
inhibition at 0.0049 µM (APC (303–739); Conc. 0.0049 μM, individual repeats, Fig3b, read-out: %inhibition): 6.1%
inhibition at 0.006 µM (APC (303–739); Conc. 0.006 μM, individual repeats, Fig3b, read-out: %inhibition): 3.8%
inhibition at 0.0078 µM (APC (303–739); Conc. 0.0078 μM, individual repeats, Fig3b, read-out: %inhibition): 6.6%
inhibition at 0.0098 µM (APC (303–739); Conc. 0.0098 μM, individual repeats, Fig3b, read-out: %inhibition): 13.7%
inhibition at 0.012 µM (APC (303–739); Conc. 0.012 μM, individual repeats, Fig3b, read-out: %inhibition): 8.8%
inhibition at 0.0156 µM (APC (303–739); Conc. 0.0156 μM, individual repeats, Fig3b, read-out: %inhibition): 19.4%
inhibition at 0.0195 µM (APC (303–739); Conc. 0.0195 μM, individual repeats, Fig3b, read-out: %inhibition): 28.4%
inhibition at 0.024 µM (APC (303–739); Conc. 0.024 μM, individual repeats, Fig3b, read-out: %inhibition): 22.1%
inhibition at 0.0313 µM (APC (303–739); Conc. 0.0313 μM, individual repeats, Fig3b, read-out: %inhibition): 44%
inhibition at 0.0391 µM (APC (303–739); Conc. 0.0391 μM, individual repeats, Fig3b, read-out: %inhibition): 48.7%
inhibition at 0.049 µM (APC (303–739); Conc. 0.049 μM, individual repeats, Fig3b, read-out: %inhibition): 44.6%
inhibition at 0.0625 µM (APC (303–739); Conc. 0.0625 μM, individual repeats, Fig3b, read-out: %inhibition): 65.8%
inhibition at 0.0781 µM (APC (303–739); Conc. 0.0781 μM, individual repeats, Fig3b, read-out: %inhibition): 67.8%
inhibition at 0.098 µM (APC (303–739); Conc. 0.098 μM, individual repeats, Fig3b, read-out: %inhibition): 67.3%
inhibition at 0.125 µM (APC (303–739); Conc. 0.125 μM, individual repeats, Fig3b, read-out: %inhibition): 80.6%
inhibition at 0.1563 µM (APC (303–739); Conc. 0.1563 μM, individual repeats, Fig3b, read-out: %inhibition): 82%
inhibition at 0.195 µM (APC (303–739); Conc. 0.195 μM, individual repeats, Fig3b, read-out: %inhibition): 81.2%
inhibition at 0.25 µM (APC (303–739); Conc. 0.25 μM, individual repeats, Fig3b, read-out: %inhibition): 89.6%
inhibition at 0.3125 µM (APC (303–739); Conc. 0.3125 μM, individual repeats, Fig3b, read-out: %inhibition): 90.7%
inhibition at 0.391 µM (APC (303–739); Conc. 0.391 μM, individual repeats, Fig3b, read-out: %inhibition): 89.5%
inhibition at 0.5 µM (APC (303–739); Conc. 0.5 μM, individual repeats, Fig3b, read-out: %inhibition): 95.1%
inhibition at 0.625 µM (APC (303–739); Conc. 0.625 μM, individual repeats, Fig3b, read-out: %inhibition): 96%
inhibition at 0.781 µM (APC (303–739); Conc. 0.781 μM, individual repeats, Fig3b, read-out: %inhibition): 94.6%
inhibition at 1 µM (APC (303–739); Conc. 1 μM, individual repeats, Fig3b, read-out: %inhibition): 98.2%
inhibition at 1.25 µM (APC (303–739); Conc. 1.25 μM, individual repeats, Fig3b, read-out: %inhibition): 98.2%
inhibition at 1.563 µM (APC (303–739); Conc. 1.563 μM, individual repeats, Fig3b, read-out: %inhibition): 96.2%
inhibition at 2 µM (APC (303–739); Conc. 2 μM, individual repeats, Fig3b, read-out: %inhibition): 99.4%
inhibition at 2.5 µM (APC (303–739); Conc. 2.5 μM, individual repeats, Fig3b, read-out: %inhibition): 99.2%
inhibition at 3.125 µM (APC (303–739); Conc. 3.125 μM, individual repeats, Fig3b, read-out: %inhibition): 98.2%
inhibition at 5 µM (APC (303–739); Conc. 5 μM, individual repeats, Fig3b, read-out: %inhibition): 100%
inhibition at 6.25 µM (APC (303–739); Conc. 6.25 μM, individual repeats, Fig3b, read-out: %inhibition): 98.1%
inhibition at 10 µM (APC (303–739); Conc. 10 μM, individual repeats, Fig3b, read-out: %inhibition): 101%
inhibition at 12.5 µM (APC (303–739); Conc. 12.5 μM, individual repeats, Fig3b, read-out: %inhibition): 98.5%
inhibition at 20 µM (APC (303–739); Conc. 20 μM, individual repeats, Fig3b, read-out: %inhibition): 100%
inhibition at 25 µM (APC (303–739); Conc. 25 μM, individual repeats, Fig3b, read-out: %inhibition): 99.7%
inhibition at 50 µM (APC (303–739); Conc. 50 μM, individual repeats, Fig3b, read-out: %inhibition): 99%
mean (FP signal, FigS5) (APC (303–739); Repeat 1, Conc. 0.0024 μM): 278.3
mean (FP signal, FigS5) (APC (303–739); Repeat 1, Conc. 0.0049 μM): 270.3
